In US9255100B2 (BAYER INTELLECTUAL PROPERTY GMBH, priority 2010, dated 2016):

biological target: T1, N-terminally GST-tagged human full length recombinant Mps-1 kinase (Homo sapiens, UniProt P33981); assay: Mps-1 kinase assay (TR-FRET); type: biochemical; details: Mps1 IC50 [nM], 10 μM ATP, 1 μM peptide substrate, 60 min at 22° C.
T1 construct: N-terminally GST-tagged human full length recombinant Mps-1 kinase; purchased Invitrogen, Karslruhe, Germany PV4071
T1 sequence (P33981 1-857): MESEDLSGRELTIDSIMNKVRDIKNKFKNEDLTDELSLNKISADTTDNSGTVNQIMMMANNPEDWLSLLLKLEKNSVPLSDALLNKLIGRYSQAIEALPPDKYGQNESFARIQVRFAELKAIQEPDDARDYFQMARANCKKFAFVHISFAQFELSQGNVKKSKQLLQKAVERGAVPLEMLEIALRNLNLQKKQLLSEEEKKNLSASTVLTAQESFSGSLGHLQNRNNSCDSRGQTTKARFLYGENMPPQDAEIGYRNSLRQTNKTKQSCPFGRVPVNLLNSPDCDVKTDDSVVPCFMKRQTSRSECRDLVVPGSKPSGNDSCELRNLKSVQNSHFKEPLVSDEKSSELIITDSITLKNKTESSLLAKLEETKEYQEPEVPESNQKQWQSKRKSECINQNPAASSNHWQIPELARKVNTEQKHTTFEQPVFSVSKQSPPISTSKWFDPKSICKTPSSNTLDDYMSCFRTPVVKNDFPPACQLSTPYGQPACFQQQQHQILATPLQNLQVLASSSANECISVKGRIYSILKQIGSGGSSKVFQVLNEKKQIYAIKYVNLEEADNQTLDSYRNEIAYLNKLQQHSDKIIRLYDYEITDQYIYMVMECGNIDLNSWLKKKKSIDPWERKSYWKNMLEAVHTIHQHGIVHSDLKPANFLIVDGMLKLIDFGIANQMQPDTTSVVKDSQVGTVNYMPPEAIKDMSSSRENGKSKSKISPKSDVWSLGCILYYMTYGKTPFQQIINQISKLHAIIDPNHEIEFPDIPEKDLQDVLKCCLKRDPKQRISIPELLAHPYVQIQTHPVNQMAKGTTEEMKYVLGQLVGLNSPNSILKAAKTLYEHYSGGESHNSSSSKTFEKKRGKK
Method in brief: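 GST-Mps-1 (full length, N-term tag) ~1 nM final, linear-range adjusted per lot; biotinylated peptide substrate. Detection: Eu-anti-pSer/Thr donor → SA-XLent acceptor TR-FRET, 1 h, 22° C. Inhibition of kinase activity.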

Row | SMILES | IC50 [nM]
1 | FC(F)(F)CCNc1cc(-c2ccncc2)nn2c(-c3ccc(-c4cnc(C5CC5)[nH]4)cc3)cnc12 [Example 26, 3-[4-(2-Cyclopropyl-1H-imidazol-5-yl)phenyl]-6-(pyridin-4-yl)-N-(3,3,3-trifluoropropyl)imidazo[1,2-b]pyridazin-8-amine] | 4.1
2 | C/C=C(\C)c1cc(NCCC(F)(F)F)c2ncc(-c3ccc(-c4cnc(C5CC5)[nH]4)cc3)n2n1 [Example 27, 6-[(2E)-But-2-en-2-yl]-3-[4-(2-cyclopropyl-1H-imidazol-5-yl)phenyl]-N-(3,3,3-trifluoropropyl)imidazo[1,2-b]pyridazin-8-amine] | 33.2
3 | Cc1cc(-c2cnc3c(NCCC(F)(F)F)cc(-c4ccc(F)cc4)nn23)ccc1C(=O)NC1CC1 [Example 28, N-cyclopropyl-4-{6-(4-fluorophenyl)-8-[(3,3,3-trifluoropropyl)amino]imidazo[1,2-b]pyridazin-3-yl}-2-methylbenzamide] | < 1
4 | Cc1cc(-c2cnc3c(NC[C@@H]4CCCO4)cc(-c4ccncc4)nn23)ccc1C(=O)NC1CC1 [Example 31, N-cyclopropyl-2-methyl-4-[6-(pyridin-4-yl)-8-{[(2S)-tetrahydrofuran-2-ylmethyl]amino}imidazo[1,2-b]pyridazin-3-yl]benzamide] | 1.1
5 | CC(C)(O)CNc1cc(-c2ccc(F)cc2)nn2c(-c3ccc(C(=S)NC4CC4)cc3)cnc12 [Example 32, N-cyclopropyl-4-{6-(4-fluorophenyl)-8-[(2-hydroxy-2-methylpropyl)amino]imidazo[1,2-b]pyridazin-3-yl}benzenecarbothioamide] | 4.3
6 | Cc1cc(-c2cnc3c(NC[C@H]4CCCO4)cc(-c4ccnn4C)nn23)ccc1C(=O)NC1CC1 [Example 33, N-cyclopropyl-2-methyl-4-[6-(1-methyl-1H-pyrazol-5-yl)-8-{[(2R)-tetrahydrofuran-2-ylmethyl]amino}imidazo[1,2-b]pyridazin-3-yl]benzamide] | 1.5
7 | Cc1cc(-c2cnc3c(NC[C@@H]4CCCO4)cc(-c4ccnn4C)nn23)ccc1C(=O)NC1CC1 [Example 34, N-cyclopropyl-2-methyl-4-[6-(1-methyl-1H-pyrazol-5-yl)-8-{[(2S)-tetrahydrofuran-2-ylmethyl]amino}imidazo[1,2-b]pyridazin-3-yl]benzamide] | 2.4
8 | Cc1cc(-c2cnc3c(NC[C@H]4CCCO4)cc(-c4ccncc4)nn23)ccc1C(=O)NC1CC1 [Example 35, N-cyclopropyl-2-methyl-4-[6-(pyridin-4-yl)-8-{[(2R)-tetrahydrofuran-2-ylmethyl]amino}imidazo[1,2-b]pyridazin-3-yl]benzamide] | 2.5
9 | COC(C)(C)CNc1cc(-c2ccccc2CO)nn2c(-c3ccc(C(=O)NC4CC4)c(C)c3)cnc12 [Example 38, N-cyclopropyl-4-{6-[2-(hydroxymethyl)phenyl]-8-[(2-methoxy-2-methylpropyl)amino]imidazo[1,2-b]pyridazin-3-yl}-2-methylbenzamide] | 10.3
10 | COC(C)(C)CNc1cc(-c2ccnn2C)nn2c(-c3ccc(C(=O)NC4CC4)c(C)c3)cnc12 [Example 39, N-cyclopropyl-4-{8-[(2-methoxy-2-methylpropyl)amino]-6-(1-methyl-1H-pyrazol-5-yl)imidazo[1,2-b]pyridazin-3-yl}-2-methylbenzamide] | 3.7
11 | C=Cc1cc(NCC(C)(C)O)c2ncc(-c3ccc(C(=O)NC4CC4)c(C)c3)n2n1 [Example 40, N-cyclopropyl-4-{8-[(2-hydroxy-2-methylpropyl)amino]-6-vinylimidazo[1,2-b]pyridazin-3-yl}-2-methylbenzamide] | 111
12 | C=Cc1cc(NCCC(F)(F)F)c2ncc(-c3ccc(C(=O)NC4CC4)c(C)c3)n2n1 [Example 41, N-cyclopropyl-2-methyl-4-{8-[(3,3,3-trifluoropropyl)amino]-6-vinylimidazo[1,2-b]pyridazin-3-yl}benzamide] | 7.1
13 | Cc1cc(-c2cnc3c(NCC(C)(C)O)cc(C4=CCNCC4)nn23)ccc1C(=O)NC1CC1 [Example 42, N-cyclopropyl-4-{8-[(2-hydroxy-2-methylpropyl)amino]-6-(1,2,3,6-tetrahydropyridin-4-yl)imidazo[1,2-b]pyridazin-3-yl}-2-methylbenzamide] | 7.8
14 | CC(C)(O)CNc1cc(C2=CCCCC2)nn2c(-c3ccc(C(=S)NC4CC4)cc3)cnc12 [Example 43, 4-{6-(Cyclohex-1-en-1-yl)-8-[(2-hydroxy-2-methylpropyl)amino]imidazo[1,2-b]pyridazin-3-yl}-N-cyclopropylbenzenecarbothioamide] | 21.1

Now from value to molecule:

Row | IC50 [nM] | SMILES
15 | 2.6 | OCc1ccccc1-c1cc(NCCC(F)(F)F)c2ncc(-c3ccc(C(=S)NC4CC4)cc3)n2n1 [Example 44, N-cyclopropyl-4-{6-[2-(hydroxymethyl)phenyl]-8-[(3,3,3-trifluoropropyl)amino]imidazo[1,2-b]pyridazin-3-yl}benzenecarbothioamide]
16 | 1.1 | Cn1nccc1-c1cc(NCCC(F)(F)F)c2ncc(-c3ccc(C(=S)NC4CC4)cc3)n2n1 [Example 45, N-cyclopropyl-4-{6-(1-methyl-1H-pyrazol-5-yl)-8-[(3,3,3-trifluoropropyl)amino]imidazo[1,2-b]pyridazin-3-yl}benzenecarbothioamide]
17 | 1.1 | OCc1cccc(-c2cc(NCCC(F)(F)F)c3ncc(-c4ccc(C(=S)NC5CC5)cc4)n3n2)c1 [Example 46, N-cyclopropyl-4-{6-[3-(hydroxymethyl)phenyl]-8-[(3,3,3-trifluoropropyl)amino]imidazo[1,2-b]pyridazin-3-yl}benzenecarbothioamide]
18 | 2 | CC(C)(O)CNc1cc(-c2ccncc2)nn2c(-c3ccc(C(=S)NC4CC4)cc3)cnc12 [Example 47, N-cyclopropyl-4-{8-[(2-hydroxy-2-methylpropyl)amino]-6-(pyridin-4-yl)imidazo[1,2-b]pyridazin-3-yl}benzenecarbothioamide]
19 | 1.4 | Cc1cc(-c2cnc3c(NCCC(F)(F)F)cc(C4CC4)nn23)ccc1C(=O)NC1CC1 [Example 48, N-cyclopropyl-4-{6-cyclopropyl-8-[(3,3,3-trifluoropropyl)amino]imidazo[1,2-b]pyridazin-3-yl}-2-methylbenzamide]
20 | 11.9 | COc1cc(C(=O)NC2CC2)ccc1-c1cnc2c(NCC(C)(C)O)cc(-c3ccc(F)cc3)nn12 [Example 49, N-cyclopropyl-4-{6-(4-fluorophenyl)-8-[(2-hydroxy-2-methylpropyl)amino]imidazo[1,2-b]pyridazin-3-yl}-3-methoxybenzamide]
21 | 84.8 | COc1cc(C(=O)NC2CC2)ccc1-c1cnc2c(NCC(C)(C)O)cc(-c3ccnn3C)nn12 [Example 50, N-cyclopropyl-4-{8-[(2-hydroxy-2-methylpropyl)amino]-6-(1-methyl-1H-pyrazol-5-yl)imidazo[1,2-b]pyridazin-3-yl}-3-methoxybenzamide]
22 | 58 | COc1cc(C(=O)NC2CC2)ccc1-c1cnc2c(NCC(C)(C)O)cc(Sc3ccccc3)nn12 [Example 51A, N-cyclopropyl-4-{8-[(2-hydroxy-2-methylpropyl)amino]-6-(phenylsulfanyl)imidazo[1,2-b]pyridazin-3-yl}-3-methoxybenzamide]
23 | 1.2 | CC(C)(O)CNc1cc(Sc2ccccc2)nn2c(-c3ccc(C(=O)NC4CC4)cc3O)cnc12 [Example 51B, N-cyclopropyl-3-hydroxy-4-{8-[(2-hydroxy-2-methylpropyl)amino]-6-(phenylsulfanyl)imidazo[1,2-b]pyridazin-3-yl}benzamide]
24 | 3.2 | COc1cc(C(=O)NC2CC2)ccc1-c1cnc2c(NCCC(F)(F)F)cc(-c3ccc(F)cc3)nn12 [Example 52, N-cyclopropyl-4-{6-(4-fluorophenyl)-8-[(3,3,3-trifluoropropyl)amino]imidazo[1,2-b]pyridazin-3-yl}-3-methoxybenzamide]
25 | 7.1 | COc1cc(C(=O)NC2CC2)ccc1-c1cnc2c(NCCC(F)(F)F)cc(-c3ccnn3C)nn12 [Example 53, N-cyclopropyl-3-methoxy-4-{6-(1-methyl-1H-pyrazol-5-yl)-8-[(3,3,3-trifluoropropyl)amino]imidazo[1,2-b]pyridazin-3-yl}benzamide]
26 | 7.6 | COc1cc(C(=O)NC2CC2)ccc1-c1cnc2c(NCCC(F)(F)F)cc(-c3ccccc3CO)nn12 [Example 54, N-cyclopropyl-4-{6-[2-(hydroxymethyl)phenyl]-8-[(3,3,3-trifluoropropyl)amino]imidazo[1,2-b]pyridazin-3-yl}-3-methoxybenzamide]
